From PMC12276029, “Structure−Activity Relationships of New 1‐Aryl‐1H‐Indole Derivatives as SARS‐CoV‐2 Nsp13 Inhibitors” (Chemmedchem, 2025)
Read-outs that look alike come from different tables or passages of the source.

Columns and labels:
[1] = biological target: T1, SARS-CoV-2 nsp13 (Severe acute respiratory syndrome coronavirus 2, UniProt P0DTD1); assay: SARS-CoV-2 nsp13 unwinding-associated activity assay; format: biochemical; conditions: for IC50: SARS-CoV-2 nsp13-associated unwinding activity, means ± SD from two experiments in triplicate, read-out: Activity in enzyme assay IC50 Unwinding BSA-TCEP
[2] = tested on: SARS-CoV-2; assay: SARS-CoV-2 plaque assay in infected Vero E6 cells; format: cell-based; conditions: for EC50: Severe acute respiratory syndrome coronavirus 2, plaque assay, means ± SD, n = 9, read-out: EC50, concentration reducing SARS-CoV-2 replication in Vero cells by 50%
[3] = in vitro; conditions: African green monkey
[4] = biological target: T1, SARS-CoV-2 nsp13; assay: SARS-CoV-2 nsp13 ATPase-associated activity assay; format: biochemical; conditions: for Activity in enzyme assay IC50 ATPase BSA-TCEP / IC50: SARS-CoV-2 nsp13-associated ATPase activity, means ± SD from two experiments in triplicate; for IC50: read-out: Activity in enzyme assay IC50 ATPase BSA-TCEP; for remaining activity at 30 µM: given in brackets beside IC50 >30 μM, read-out: Percentage of enzymatic residual activity, ATPase
[5] = tested on: SARS-CoV-2; set-up: method as in PMID 37562607; conditions: read-out: EC50 SARS-CoV-2 replication; cited from earlier work
[6] = tested on: HCoV229E; set-up: method as in PMID 37562607; conditions: cited from earlier work
[7] = biological target: T1, SARS-CoV-2 nsp13; set-up: method as in PMID 37562607; conditions: SARS-CoV-2 nsp13 ATPase; cited from earlier work
[8] = biological target: T1, SARS-CoV-2 nsp13; set-up: method as in PMID 37562607; conditions: SARS-CoV-2 nsp13 unwinding; cited from earlier work
[9] = tested on: Vero cells; set-up: method as in PMID 37562607; conditions: cited from earlier work
[10] = tested on: MERS-CoV; conditions: cited from earlier work
[11] = tested on: SARS-CoV-2; conditions: read-out: EC50 antiviral activity; cited from earlier work
[12] = biological target: T1, SARS-CoV-2 nsp13; assay: Mode-of-action assay (incubation-dependent potency, covalent/noncovalent); format: biochemical; conditions: for IC50: read-out: IC50 at time-point

For `CC(C)c1ccc(-n2cc(C(=O)/C=C(\O)C(=O)O)c3ccccc32)cc1` [Compound 7c], the IC50 [1] was 0.7 ± 0.13 µM, the “SI = CC50/EC50” value [2] was >12 and the EC50 [2] was 8.1 ± 1.37 µM. The CC50 [3] was > 100 µM, the “Activity in enzyme assay IC50 ATPase BSA-TCEP” value [4] was “no activity” and the IC50 [4] was > 30 µM. It also gave a remaining activity at 30 µM [4] of 63.9%.

For `CC(C)c1ccc(-n2cc(/C=C/C(=O)/C=C(\O)C(=O)O)c3ccccc32)cc1` [Compound 5c], the “selectivity for unwinding over ATPase” value ([1]; IC50 ATPase vs IC50 unwinding) was 70 fold, the IC50 [1] was 0.26 ± 0.01 µM and the “SI = CC50/EC50” value [2] was >47. The EC50 [2] was 2.12 ± 0.67 µM, the CC50 [3] was > 100 µM and the IC50 [4] was 8.43 ± 0.04 µM.

With `O=C(O)/C(O)=C/C(=O)c1cn(-c2ccccc2)c2ccccc12` [Compound 7d] the IC50 [1] was > 30 µM, the remaining activity at 30 µM ([1]; given in brackets beside IC50 >30 μM, read-out: Percentage of enzymatic residual activity, unwinding) was 75.1% and the IC50 [4] was > 30 µM. It also gave a remaining activity at 30 µM [4] of 102%.

With `CCOC(=O)/C(O)=C/C(=O)c1cn(-c2ccc(C(C)C)cc2)c2ccccc12` [Compound 8c] the IC50 [1] was 8.04 ± 2.1 µM and the IC50 [4] was 15.7 ± 0.1 µM.

For `O=C(O)/C(O)=C/C(=O)c1cn(-c2ccc(F)cc2)c2ccccc12` [Compound 7e], the IC50 [1] was 7.03 ± 1.94 µM, the “Activity in enzyme assay IC50 ATPase BSA-TCEP” value [4] was “no activity” and the IC50 [4] was > 30 µM. It also gave a remaining activity at 30 µM [4] of 99.3%.

For `O=C(/C=C(\O)C(=O)O)/C=C/c1cn(-c2ccc(Cl)cc2)c2ccccc12` [Compound 5f], the IC50 [1] was 2.64 ± 0.61 µM and the IC50 [4] was 20.95 ± 0.14 µM.

In the case of `O=C(/C=C(\O)C(=O)O)/C=C/c1cn(-c2ccc(F)cc2)c2ccccc12` [Compound 4], the EC50 [5] is given as 1.7 µM, the “activity range on HCoV229E” value [6] is given as “low micromolar” and the IC50 [7] is given as 8.2 µM. For the same compound, the IC50 [8] was 4.7 µM, the CC50 [9] was > 264 µM and the “activity range on MERS-CoV” value [10] was “submicromolar”.

Compound `CCOC(=O)/C(O)=C/C(=O)/C=C/c1cn(-c2ccc(C(C)C)cc2)c2ccccc12` [Compound 6c] has an IC50 [1] of 4.16 ± 0.44 µM and an IC50 [4] of 13.5 ± 3.34 µM.

In the case of `CC(C)=CCc1c(O)cc(O)c2c(=O)cc(-c3ccc(O)cc3)oc12` [licoflavone C], the EC50 [11] is listed as > 100 µM.

For `CCOC(=O)/C(O)=C/C(=O)/C=C/c1cn(-c2ccc(C(F)(F)F)cc2)c2ccccc12` [Compound 6h], the IC50 [1] was 3.11 ± 0.55 µM, the “SI = CC50/EC50” value [2] was >21 and the EC50 [2] was 4.69 ± 1.8 µM. For the same compound, the CC50 [3] was > 100 µM, the IC50 ([12]; 1 min after the activation of the reaction) was 0.3 µM and the IC50 ([12]; 5 min after the activation of the reaction) was 0.48 µM. The IC50 ([12]; 10 min after the activation of the reaction) was 0.79 µM, the IC50 ([12]; 15 min after the activation of the reaction) was 1.06 µM and the IC50 ([12]; 20 min after the activation of the reaction) was 1.31 µM. For the same compound, the “nature of the inhibition” value ([12]; from time-increased IC50 values) was “noncovalent”, the “effect of extended preincubation of compound and enzyme on potency” value ([12]; preincubation +20 min and +50 min at room temperature) was “did not lead to increasing in inhibitory potency” and the IC50 [4] was 1.21 ± 0.16 µM.

For `CCOC(=O)/C(O)=C/C(=O)c1cn(-c2ccc(F)cc2)c2ccccc12` [Compound 8e], the IC50 [1] was 12.9 ± 0.59 µM and the IC50 [4] was 16.4 ± 3.1 µM.

Compound `Cc1ccc(-n2cc(/C=C/C(=O)/C=C(\O)C(=O)O)c3ccccc32)cc1` [Compound 5b] has an IC50 [1] of 11.7 ± 0.94 µM and an IC50 [4] of 5.12 ± 0.38 µM.

`CCOC(=O)/C(O)=C/C(=O)c1cn(-c2ccc(OC)cc2)c2ccccc12` [Compound 8a] showed an IC50 [1] of 18.8 ± 0.22 µM and an IC50 [4] of 19.06 ± 0.14 µM.

Work on `CCOC(=O)/C(O)=C/C(=O)/C=C/c1cn(-c2ccc(OC)cc2)c2ccccc12` [Compound 6a] yielded an IC50 [1] of 7.59 ± 1.5 µM and an IC50 [4] of 10.4 ± 0.13 µM.

With `CCOC(=O)/C(O)=C/C(=O)/C=C/c1cn(-c2ccc(C#N)cc2)c2ccccc12` [Compound 6g] the IC50 [1] was 6.26 ± 0.65 µM, the “SI = CC50/EC50” value [2] was >8 and the EC50 [2] was 11.8 ± 7.45 µM. The CC50 [3] was > 100 µM and the IC50 [4] was 2.35 ± 0.4 µM.
